Target: T1, protease activated receptor subtype 1, PAR1 (Homo sapiens, UniProt P25116)
T1 construct: A431 cells endogenously express both PAR1 and β2AR; endogenous in cells; host or cells: A431 (human epidermoid carcinoma)
T1 sequence (P25116 22-425): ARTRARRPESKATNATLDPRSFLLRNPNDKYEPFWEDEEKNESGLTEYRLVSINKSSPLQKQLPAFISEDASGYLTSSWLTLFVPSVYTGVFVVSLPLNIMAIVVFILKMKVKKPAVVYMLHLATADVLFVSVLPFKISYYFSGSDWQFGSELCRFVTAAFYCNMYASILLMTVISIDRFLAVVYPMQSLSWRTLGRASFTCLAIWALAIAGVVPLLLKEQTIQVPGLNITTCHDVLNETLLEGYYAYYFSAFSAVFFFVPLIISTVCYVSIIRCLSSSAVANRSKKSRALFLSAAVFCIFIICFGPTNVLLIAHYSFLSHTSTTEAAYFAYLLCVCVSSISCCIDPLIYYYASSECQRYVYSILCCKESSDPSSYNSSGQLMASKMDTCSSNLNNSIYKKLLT
Assay: RWG biosensor DMR assay, SFLLR-amide stimulation of A431 cells
Type: cell-based
Details: 1 micromolar
Excerpt: Corning® Epic® wavelength interrogation system was used.
It is widely believed that GPCR signaling proceeds through a series of highly regulated spatial and temporal events besides the production and regulations of second messengers such as Ca^2+ and cAMP. […] The label-free optical biosensors enable the measurement of an integrated cellular response relating to ligand-induced dynamic mass redistribution in cells within the detection zone of the biosensor, offering a novel readout for receptor biology and ligand pharmacology.
FIG. 2 provide examples of RWG biosensor-based cell assays against two classes of G protein-coupled receptors. […] A431 cells endogenously express both PAR1 and β2AR. […] This is consistent with the known signaling pathways mediated through each receptor individually, i.e., PAR1 activation leads to a Gq pathway, while β2AR activation leads to a Gs pathway. […] In FIGS. 2b, 2c and 2d, the error bar at each time point was also included. One possible explanation is that distinct classes of GPCRs can mediate signaling through distinct routes (e.g., “channeling” or “tunneling”), and the cells can respond synergistically to co-stimulation with two agonists targeting two different receptors.

For SFLLR-amide, which “type of DMR signal induced” value is on record?
The value was “Gq-type DMR signal”.

From patent US8759013B2, “Dual-target biosensor cell assays” (Corning Incorporated, priority 2008, dated 2014)
